Series [1] is described as follows: In vitro drug release, USP device type II, SGF then SIF. Conditions: after switch from SGF pH 1.2 (30 min) to SIF pH 6.8; 37° C., 100 rpm; 8 mm device, 20 mg desmopressin, 40 mg PVP, enteric capsule. Format: physicochemical. How it is done: The temperature was set at 37° C., and the rotating speed was at 100 rpm. Aliquots of 1 mL were sampled at the predetermined time points and the sampled volume was replaced with fresh SGF or SIF buffer. Quantification was carried by HPLC (VWR Hitachi Chromaster system with 5160 pump, 5260 autosampler, 5310 column oven and 5430 diode array detector, VWR International, Radnor, PA) with the UV wavelength set at 280 nm. […] At the intestinal pH, desmopressin started being released when the solvent was switched to SIF and was completely released within about 20 minutes. […] The drug release kinetics is also controlled with the polymeric excipient.

For series [2] the following is noted: in the presence of permeation enhancers; cited from earlier work.

As to `NC(=O)CC[C@@H]1NC(=O)[C@H](Cc2ccccc2)NC(=O)[C@H](Cc2ccc(O)cc2)NC(=O)CCSSC[C@@H](C(=O)N2CCC[C@H]2C(=O)N[C@H](CCCN=C(N)N)C(=O)NCC(N)=O)NC(=O)[C@H](CC(N)=O)NC1=O` [desmopressin], the “time to complete release of desmopressin” value in series [1] is ≤ 20 min.
As for `C[C@@H](O)[C@@H]1NC(=O)[C@H](CCCCN)NC(=O)[C@@H](Cc2c[nH]c3ccccc23)NC(=O)[C@H](Cc2ccccc2)NC(=O)[C@@H](NC(=O)[C@H](N)Cc2ccccc2)CSSC[C@@H](C(=O)N[C@H](CO)[C@@H](C)O)NC1=O` [octreotride], the oral bioavailability in series [2] is recorded as 0.5-1%.
Turning to semaglutide, in series [2], the oral bioavailability is ~1%.
